Read-outs that look alike come from different tables or passages of the source.

One assay has as its system turkey breast tissue. The note with it: supplemental Cr; Anderson et al. 1989; cited from earlier work.
The next assay deals with laying hen. The conditions noted are these: Jensen et al. 1978; cited from earlier work.
The subject of a further assay is adult men. The conditions noted are these: Cr supplementation; cited from earlier work.
The next assay relates to turkey poults. The note with it: Steele et al. 1979; Rosebrough et al. 1981; may depend on Cr (III) in an organic form; cited from earlier work.
The subject of a further assay is rabbits. The conditions noted are these: cited from earlier work.
For assay [1], the system named is laying hens. The conditions noted are these: dietary; Jensen et al. 1980; cited from earlier work.
In another assay the test system is swine. The note with it: Hill et al. 1986; cited from earlier work.
For another assay, the system named is rats. The conditions noted are these: 200 mg/kg picolinic acid in diet; cited from earlier work.
The subject of assay [2] is laying hens. In words: Percentage of egg crude protein (Kjeldahl N method), Example 1. The assay is classed as in vivo, Hyline 36 commercial-type laying hens. The note with it: for Egg Protein: egg of Day 24, SEM .2, chromium quadratic effect P < .02. An excerpt: (§1) Hyline 36 commercial-type laying hens were taken from the Louisiana State University Agricultural Center Poultry Unit. The hens were 32-36 weeks of age during the 28 days of the trial. A randomized complete block design was used, and the hens were blocked on location in the barn. Hens were penned individually in cages (0.30×0.41 m) in an open front building. Each of the six treatments described below was replicated ten times, with one hen per replicate. The hens were fed a corn-soybean meal laying hen basal diet for one week. The composition of the diet is set forth in Table 1, and was formulated to meet or exceed the requirements for all nutrients as stated in "Nutrient Requirements of Poultry," National Research Council (1984). The hens were then randomly allotted to a treatment, and were fed the experimental diets during a 28-day trial. The following treatments were used: (1) Corn-soybean meal basal (B), (2) B+50 ppb Cr, (3) B+100 ppb Cr, (4) B+200 ppb Cr, (5) B+400 ppb Cr, and (6) B+800 ppb Cr. Cromium was administered as chromium picolinate. Treatment diets and water were provided on an ad libitum basis.
(§2) Egg production was recorded daily, and eggs were collected on Days 2, 9, 16, and 23 for determination of specific gravity [weight in air/(weight in air-weight in water)] and Haugh units. (Haugh unit=100 Log10 (Albumen height (in mm)+(7.57-(1.7) (Egg mass in grams)^037))). Eggs were collected on Days 0, 7, 14, 21, and 28 for CH analysis. To determine yolk CH, eggs were hard-cooked by immersion in boiling water for 5 min. Yolks were removed and weighed. The entire yolk was blended with a volume of isopropyl alcohol proportional to the yolk weight (10 ml/g of yolk). The cholesterol content of this extract (mg per g wet weight) was determined by an automated procedure based on the Lieberman-Burchard method. One egg was collected on Day 22 for determination of percentage of egg fat using the acid hydrolysis method, and one egg was collected on Day 24 for determination of percentage of egg crude protein by the Kjeldahl N method.
(§3) Data were analyzed by analysis of variance. Linear, quadratic, and cubic contrasts were used to evaluate the treatment effects. Egg production, specific gravity, Haugh units, and CH were measured over time and analyzed by split-plot analyses using hen(trt*rep) as the error term in the model.

For assay [3], the system named is laying hens. Nature of the assay: Egg production, Example 2 (eight-week trial, hens 28-36 weeks of age). Format: in vivo, Hyline 36 commercial-type laying hens. The note with it: for Egg Production: eight weeks, SEM 2.7.
Excerpt: as §1, §2, §3
(§4) The procedures described in Example 1 were followed, except as noted. The trial lasted eight weeks, and the hens were 28-36 weeks of age during the eight weeks of the trial. The treatments used were (1) Basal (B), (2) B+100 ppb Cr, (3) B+200 ppb Cr, (4) B+300 ppb Cr, and (5) B+400 ppb Cr. Only egg production is reported.

For assay [4], the system named is laying hens. Nature of the assay: Percentage of egg fat (acid hydrolysis method), Example 1. The conditions noted are these: for Egg fat: egg of Day 22, SEM .2, chromium quadratic effect P < .10; for Effect on percentage of egg fat: Cr quadratic, P<0.1. The assay is classed as in vivo, Hyline 36 commercial-type laying hens.
Excerpt: as §1, §2, §3

Assay [5] deals with laying hens. Nature of the assay: Haugh units of eggs, Example 1. The conditions noted are these: for Haugh units: mean of eggs of Days 2, 9, 16, 23, SEM 1.8. Format: in vivo, Hyline 36 commercial-type laying hens.
Excerpt: as §1, §2, §3

Assay [6] relates to laying hens. Nature of the assay: Egg production, Example 1 (28-day feeding trial, hens 32-36 weeks of age). Format: in vivo, Hyline 36 commercial-type laying hens. The note with it: for Egg Production: 28 days, mean of 10 replicates, SEM 2.7, chromium cubic effect P < .03.
Excerpt: as §1, §2, §3

Assay [7] deals with laying hens. Nature of the assay: Specific gravity of eggs, Example 1. Format: in vivo, Hyline 36 commercial-type laying hens. The note with it: for Specific gravity: mean of eggs of Days 2, 9, 16, 23, SEM .001.
Excerpt: as §1, §2, §3

Assay [8] has as its system laying hens. Nature of the assay: Egg yolk cholesterol (Lieberman-Burchard method), Example 1. The assay is classed as in vivo, Hyline 36 commercial-type laying hens. The note with it: for Egg CH (cholesterol): mean of eggs of Days 0, 7, 14, 21, 28, SEM .2.
Excerpt: as §1, §2, §3

For assay [9], the system named is laying hens. In words: Egg production, Example 3 (eight-week trial, hens 48-56 weeks of age). Format: in vivo, Hyline 36 commercial-type laying hens. The note with it: for Egg Production: eight weeks, SEM 4.3.
Excerpt: as §1, §2, §3, §4
The procedures of Example 2 were followed, except that the hens were 48-56 weeks of age during the eight weeks of the trial.

Where [10] appears, read: overall, 100-400 ppb Cr, P>0.10.
Where [11] appears, read: hens receiving 100 and 200 ppb Cr.

On to `[Cr]` [Cr, chromium], for which the Turkey breast tissue entry in the assay on turkey breast tissue was “small increase”. Also, in the assay on laying hen, the “Biological activity in the laying hen” value is given as “biologically active”. Also, in the assay on adult men, the HDL cholesterol result is listed as “increases” and the Serum triglycerides result is on record as “decreases”. In the assay on turkey poults, the “Growth rate of turkey poults” value is “improved”. Further, in the assay on rabbits, the “Cholesterol (CH) accumulation” value was “decreased” and the “Removal rate of CH already deposited in the aorta” value was “increased”.
`O.O.O.O.O.O.[Cl][Cr]([Cl])[Cl]` [CrCl3.6H2 O]: in the assay with laying hens [1], the “Effect on egg production” value is reported as “no positive effect”.
With `O=C(O)c1ccccn1` [picolinic acid, pyridine-2-carboxylic acid], in the assay on swine, the Growth rates result was “faster growth rates” and the Zinc absorption entry is “did not aid zinc absorption”. The “Growth rates in rats” value in the assay with rats is given as “greater growth rates”.
With chromium picolinate, the “Egg Protein” value with laying hens [2] (B + 50 ppb Cr in diet) came to 12.2%; in the assay with laying hens [2] (B + 100 ppb Cr in diet), 12.2%; in the assay with laying hens [2] (B + 200 ppb Cr in diet), 12.2%; with laying hens [2] (B + 400 ppb Cr in diet), 12.6%; with laying hens [2] (B + 800 ppb Cr in diet) it was 12.3%. The “Effect on percentage of egg crude protein” value with laying hens [2] (CrPic supplementation to the diet, Cr quadratic, P<0.02) is listed as “reduced”. In addition, the “Egg Production” value with laying hens [3] (B + 100 ppb Cr in diet) was 85.2%; in the assay on laying hens [3] (B + 200 ppb Cr in diet), 82.3%; in the assay with laying hens [3] (B + 300 ppb Cr in diet), 84.5%; with laying hens [3] (B + 400 ppb Cr in diet) it was 81.6%; in the assay with laying hens [6] (B + 50 ppb Cr in diet) it was 79.3%; in the assay with laying hens [6] (B + 100 ppb Cr in diet), 81.1%. In addition, the “Egg Production” value in the assay on laying hens [6] (B + 200 ppb Cr in diet) came to 83.2%; in the assay with laying hens [6] (B + 400 ppb Cr in diet), 76.1%; in the assay with laying hens [6] (B + 800 ppb Cr in diet), 77.7%; in the assay on laying hens [9] (B + 100 ppb Cr in diet), 83.0%; in the assay on laying hens [9] (B + 200 ppb Cr in diet), 82.1%; in the assay on laying hens [9] (B + 300 ppb Cr in diet) it was 74.8%. The “Egg Production” value with laying hens [9] (B + 400 ppb Cr in diet) turned out to be 77.1%. Besides, the “Effect on egg production” value is given as “numerical increase in egg production” in the assay with laying hens [3] (at 100 ppb Cr); “not observed to affect egg production” with laying hens [3] (setting [10]); “decreased” in the assay on laying hens [6] (at 400 and 800 ppb Cr, Cr cubic, P<0.03); “incrementally increased in some circumstances” in the assay with laying hens [6] (supplementing the diet with CrPic, summary statement); “increased” in the assay on laying hens [6] (through 200 ppb Cr, Cr cubic, P<0.03); “numerical increase in egg production” in the assay with laying hens [9] (at 100 ppb Cr). The “Effect on egg production” value with laying hens [9] (setting [10]) is “not observed to affect egg production”. Moreover, the Egg fat in the assay on laying hens [4] (B + 50 ppb Cr in diet) was 10.2%; in the assay with laying hens [4] (B + 100 ppb Cr in diet) it was 10.6%; in the assay on laying hens [4] (B + 200 ppb Cr in diet) it was 10.8%; with laying hens [4] (B + 400 ppb Cr in diet), 10.0%; in the assay on laying hens [4] (B + 800 ppb Cr in diet) it was 9.9%. The “Effect on percentage of egg fat” value was “lower” in the assay on laying hens [4] (hens receiving 50, 400, and 800 ppb Cr); “higher” in the assay with laying hens [4] (setting [11]). The Haugh units with laying hens [5] (B + 50 ppb Cr in diet) came out at 82.6; in the assay on laying hens [5] (B + 100 ppb Cr in diet), 84.6; with laying hens [5] (B + 200 ppb Cr in diet), 82.0; with laying hens [5] (B + 400 ppb Cr in diet), 85.0; in the assay on laying hens [5] (B + 800 ppb Cr in diet), 79.7. Besides, the “Effect on Haugh units” value with laying hens [5] (P>0.1) is on record as “not affected”. The “Optimum dosage of CrPic for egg production” value in the assay with laying hens [6] (in the diet, from the experiments of Examples 1-3) is on record as 100-200 ppb Cr. Further, the Specific gravity in the assay with laying hens [7] (B + 50 ppb Cr in diet) is on record as 1.085; in the assay with laying hens [7] (B + 100 ppb Cr in diet), 1.084; in the assay with laying hens [7] (B + 200 ppb Cr in diet), 1.084; with laying hens [7] (B + 400 ppb Cr in diet) it was 1.084; with laying hens [7] (B + 800 ppb Cr in diet), 1.085. Moreover, the “Effect on specific gravity” value in the assay with laying hens [7] (P>0.1) is given as “not affected”. Further, the “Egg CH (cholesterol)” value with laying hens [8] (B + 50 ppb Cr in diet) is 12.1 mg/g yolk; with laying hens [8] (B + 100 ppb Cr in diet) it was 11.7 mg/g yolk; with laying hens [8] (B + 200 ppb Cr in diet) it was 11.9 mg/g yolk; with laying hens [8] (B + 400 ppb Cr in diet), 12.1 mg/g yolk; with laying hens [8] (B + 800 ppb Cr in diet), 11.9 mg/g yolk. For the same compound, the “Effect on egg CH” value in the assay on laying hens [8] (CrPic supplementation overall, P>0.1) was “not affected”; with laying hens [8] (setting [11]), “tended to be lower”. For the same compound, the “Effect on egg CH by Day 28” value in the assay with laying hens [8] (by Day 28 of the trial, Cr quadratic, P<0.05) is “reduced”.

Source of the values: US5336672A, “Increasing egg production in poultry” (Board of Supervisors of Louisiana State University and …, priority 1992, dated 1994).
